# According to patent publication US12416052B2, “Capturing, concentrating, and detecting microbes in a sample using magnetic ionic liquids and recombinase polymerase amplification” (priority 2019, dated 2025):
# Values joined by “and” are separate entries in the source; they are usually repeats but may differ in a detail not shown here. Equal entries are not always repeated.
# How the values were obtained:
# [1] = test system: S. enterica subsp. arizonae; type: cell-based, Salmonella enterica; set-up: key to Relative Affinity for MIL: +++++: higher losses during wash step are due to lower cellular affinity for the MIL; ++++: higher losses during wash step are due to lower cellular affinity for the MIL; +++: higher losses during wash step are due to lower cellular affinity for the MIL; ++: higher losses during wash step are due to lower cellular affinity for the MIL; +: higher losses during wash step are due to lower cellular affinity for the MIL
# Description: (§1) A universal schematic for MIL-based cell extraction is depicted in FIG. 7B. A 1 mL volume of diluted cell suspension was added to a flat-bottomed 4-mL screw cap glass vial. Fifteen microliters of either the Ni(II) or Dy(III) MIL was added and dispersed into microdroplets by vortex agitation for 30 s. The aqueous phase was decanted following dispersive extraction, and the MIL was subjected to a brief wash step using 1 mL of nuclease-free water (Integrated DNA Technologies, Coralville, IA, USA) to ensure adequate removal of loosely or incidentally bound cells. After washing, release of viable cells from the MIL extraction phase was carried out using a “back-extraction” step accomplished through addition of 1 mL of an ionically-rich nutritive medium comprised of 20 g L^−1 tryptone and 10 g L^−1 NaCl, followed by a 120 s vortex step. After back-extraction, aliquots of the cell-enriched back-extraction medium were enumerated using the track dilution method using 100×100 mm square, gridded TSA, BSA, CA or VRBGA plates.
# (§2) Following back-extraction, aliquots of the cell-enriched back-extraction medium were serially diluted in 0.1% peptone water and a 10 μL aliquot of each dilution was applied to a separate lane on square plates containing an appropriate agar medium. The plates were then tilted at an approximately 80° angle for 15 min to allow the droplets to travel toward the opposite end of the plate. The plates were incubated for 24 h at 37° C. (TSA, VRBGA), for 48 h at 37° C. (BSA) or for 24 h at 37° C. (CA). Colonies were counted and colony forming units (CFU) were determined. The enrichment factor (EF) for MIL-based extraction was calculated using Equation 1, where CMIL represents the concentration of bacteria in suspension following extraction using the MIL and CS is the initial concentration of bacteria in the sample.
# (§3) In order to explore the broader utility of our approach, evaluation of additional cell types is needed. We began this extended evaluation of the Ni(II) MIL with seven representative DNA subgroups of Salmonella and eight strains of E. coli O157:H7. Briefly, a 1 mL aliquot of TSB was inoculated with 1×10^6 CFU mL^−1 of bacteria, and spiked with 15 μL of the Ni(II) MIL. MIL-based extraction was performed and 10 μL aliquots of the back-extraction solution were enumerated using TSA and BSA plates (Salmonella) or TSA plates (E. coli O157:H7). […] We later determined that VRBGA was a suitable common medium for this purpose and used this in our statistical analysis. Average CFU counts were compared to standards that were not exposed to the Ni(II) MIL. Enrichment factors were calculated for Salmonella on both non-selective (TSA) and selective agars (BSA) and for E. coli O157:H7 on non-selective agar (TSA). […] Note: As BSA is a Salmonella-specific agar E. coli O157:H7 was not plated to BSA in this example.
# (§4) Although all of the strains assessed were capable of being enriched by the MIL, some species were physically enriched to greater extents than others with extraction. In order to further examine the cause for this finding, the number of captured cells lost to the wash solution was investigated. The wash step is performed after the MIL enrichment step in order to remove any incidentally-adsorbed bacteria prior to back-extraction. It is hypothesized that the cells with lower enrichment factors have lower affinities for the MIL and are therefore lost in greater number to the wash solution than those having higher enrichment factors. […] The percent-loss during the wash step ranged from 47-79%. […] EF data from Table 4 for three overlapping Salmonella strains are superimposed to highlight trends in percent-loss, relative affinity and EF.
# [2] = test system: S. enterica subsp. diarizonae; type: cell-based, Salmonella enterica; set-up: key to Relative Affinity for MIL: +++++: higher losses during wash step are due to lower cellular affinity for the MIL; ++++: higher losses during wash step are due to lower cellular affinity for the MIL; +++: higher losses during wash step are due to lower cellular affinity for the MIL; ++: higher losses during wash step are due to lower cellular affinity for the MIL; +: higher losses during wash step are due to lower cellular affinity for the MIL
# Description: as §1, §2, §3, §4
# [3] = test system: Y. enterocolitica ATCC 9160; assay: MIL-based whole-cell extraction; set-up: species or system Yersinia enterocolitica; conditions: EF determined using Tryptic Soy Agar
# Description: (§5) A universal schematic for MIL-based cell extraction is depicted in FIG. 7B. A 1 mL volume of diluted cell suspension was added to a flat-bottomed 4-mL screw cap glass vial. Fifteen microliters of either the Ni(II) or Dy(III) MIL was added and dispersed into microdroplets by vortex agitation for 30 s. The aqueous phase was decanted following dispersive extraction, and the MIL was subjected to a brief wash step using 1 mL of nuclease-free water (Integrated DNA Technologies, Coralville, IA, USA) to ensure adequate removal of loosely or incidentally bound cells. […]
# as §2, with “The plates were then tilted at an approximately 80° angle for 15 min to allow the droplets to travel toward the opposite end of the plate. The plates were incubated for 24 h at 37° C. (TSA, VRBGA), for 48 h at 37° C. (BSA) or for 24 h at 37° C. (CA).” left out
# [4] = test system: Y. enterocolitica ATCC 2371; assay: MIL-based whole-cell extraction; set-up: species or system Yersinia enterocolitica; conditions: EF determined using Tryptic Soy Agar
# Description: as §5
# as §2, with “The plates were then tilted at an approximately 80° angle for 15 min to allow the droplets to travel toward the opposite end of the plate. The plates were incubated for 24 h at 37° C. (TSA, VRBGA), for 48 h at 37° C. (BSA) or for 24 h at 37° C. (CA).” left out
# [5] = 1×10^6 CFU mL^−1 in TSB, 15 μL MIL
compound,measurement,setting,value
"CCCCCCCCCCCCCC[P+](CCCCCC)(CCCCCC)CCCCCC.O=C([CH-]C(=O)C(F)(F)F)C(F)(F)F.O=C([CH-]C(=O)C(F)(F)F)C(F)(F)F.O=C([CH-]C(=O)C(F)(F)F)C(F)(F)F.[Ni+2] [Ni(II) MIL, [P66614^+][Ni(hfacac)3^−]]",Relative Affinity for MIL,[1],+
same,Enrichment Factor (BSA),[1]; [5],2 and 4
same,Enrichment Factor (TSA),[1]; [5],3
same,Percent-Loss,[1]; cells lost to wash solution,79 ± 1%
same,Relative Affinity for MIL,[2],+++++
same,Enrichment Factor (BSA),[2]; [5],11
same,Enrichment Factor (TSA),[2]; [5],7
same,Percent-Loss,[2]; cells lost to wash solution: wash counts / (wash + back-extraction counts) × 100,47 ± 7%
same,Enrichment Factor,[3],5
same,Enrichment Factor,[4],5
